# What was measured:
# [1] = system: mouse Th17 polarization; test: Mouse Th17 polarization assay (IL-17a producing cells); assay type: cell-based; conditions: for IC50: naive mouse CD4 T cells, TGFβ and IL6, compounds added Day 1, analyzed Day 4, IL-17a producing cells, read-out: Th 17 IC50
# Procedure: Effects of compound derivatives at various concentrations on mouse Th17 polarization. Percentage of DMSO treated IL-17a producing cells was set at 100. Naive mouse CD4 T cells (CD25^−, CD62L^+, and CD44^int-high) were sorted and cultured with CD3/CD28 stimulatory antibodies in the presence of TGFβ (0.1 ng/ml) and IL6 (20 ng/ml). Compounds were added on Day 1 and cells were analyzed on Day 4. For intracellular cytokine staining, cells were incubated for 5 h with phorbol ester (50 ng/ml; Sigma), ionomycin (500 ng/ml; Sigma) and GolgiStop (BD). When needed, surfaces were stained by incubation for 15 min on ice with PECy7-conjugated CD4 (BD Biosciences). The Cytofix/Cytoperm buffer set (BD) was used for intracellular staining. Cells were fixed and made permeable for 30 min on ice and were stained for 30 min on ice in permeabilization buffer with Alexa647-conjugated anti-IL17 (eBioscience) and PE-conjugated anti-IFNg (eBioscience). An LSR II (BD Biosciences) and FlowJo software (Tree Star) were used for flow cytometry. RORg IC50 value acquired from the S2 cell reporter assay is listed for comparison.
# Naive CD4 T cells (CD25^−, CD62L^+, and CD44^int-high) were sorted and cultured with CD3/CD28 stimulatory antibodies in the presence of TGFβ (0.1 ng/ml) and IL6 (20 ng/ml). Compounds were added on Day 1 and cells were analyzed on Day 4. For intracellular cytokine staining, cells were incubated for 5 h with phorbol ester (50 ng/ml; Sigma), ionomycin (500 ng/ml; Sigma) and GolgiStop (BD). When needed, surfaces were stained by incubation for 15 min on ice with PECy7-conjugated CD4 (BD Biosciences). The Cytofix/Cytoperm buffer set (BD) or FoxP3 staining kit (eBioscience) were used for intracellular staining. Cells were fixed and made permeable for 30 min on ice and were stained for 30 min on ice in permeabilization buffer with Alexa647-conjugated anti-IL17 (eBioscience), PE-conjugated anti-IFNg (eBioscience), and/or PE-conjugated anti-FoxP3 (eBioscience). An LSR II (BD Biosciences) and FlowJo software (Tree Star) were used for flow cytometry.
# [2] = target: RORγt (Mus musculus, UniProt P51450, T352K); test: RORγt S2 cell Gal4-luciferase reporter assay; conditions: for Emax: read-out: Efficacy (%)
# Sequence of RORγt (P51450 with tags, fused parts or gaps T352K): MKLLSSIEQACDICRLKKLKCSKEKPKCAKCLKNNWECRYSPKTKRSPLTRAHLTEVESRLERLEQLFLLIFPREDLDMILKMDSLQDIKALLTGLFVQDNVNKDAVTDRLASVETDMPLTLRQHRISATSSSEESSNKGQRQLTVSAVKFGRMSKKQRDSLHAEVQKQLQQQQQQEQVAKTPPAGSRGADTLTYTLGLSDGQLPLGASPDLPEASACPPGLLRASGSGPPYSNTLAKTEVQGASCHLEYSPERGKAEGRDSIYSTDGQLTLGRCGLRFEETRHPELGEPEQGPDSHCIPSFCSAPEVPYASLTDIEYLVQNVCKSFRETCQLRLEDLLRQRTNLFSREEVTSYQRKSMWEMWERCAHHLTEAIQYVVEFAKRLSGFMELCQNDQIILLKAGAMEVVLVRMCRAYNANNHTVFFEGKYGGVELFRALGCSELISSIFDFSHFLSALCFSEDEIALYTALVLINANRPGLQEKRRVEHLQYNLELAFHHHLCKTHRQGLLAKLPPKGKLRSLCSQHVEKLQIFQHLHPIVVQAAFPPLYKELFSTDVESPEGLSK
# Excerpt: Methods: The Drosophila S2 cell line was originally purchased from Invitrogen and was maintained in Schneider's medium supplemented with 10% heat-inactivated bovine fetal calf serum and antibiotics (Invitrogen). […] The resulting chimeric gene was subcloned into the copper inducible pMT/V5-His A vector (available from Invitrogen).
# In order to generate stable cell lines, cells were co-transfected with pMT-G4DBD-RORγt, pMT-G4DBD-RORα, pMT-G4DBD-DHR3, or pMT-G4DBDVP16 and pHygro plasmids (Invitrogen) and screened for resistant colonies in the presence of hygromycin (0.3 mg/mL).
# Methods: 600 G4DBD-RORγ/γt-luc reporter (#25) or G4DBD-VP16-luc reporter cells were distributed into each well of 1,536-well white bottom plates in 4 μl S2 cell culture volume containing hygromicin (300 μg/ml) and puromycin (2 μg/ml). […] After one-hour incubation, 1 μl of culture medium solution containing copper sulfate (to final 0.7 mM) and 10 μM RORγ/γt antagonists were added to each well. After 20-hour incubation at ambient temperature, 1.5 μl firefly luciferase detection mix was added and the luciferase activities were measured in 10 min. ViewLux luminometers were used for measuring luciferase signal.
# Since their cognate DNA binding sites were not well characterized, the DNA binding domains (DBD) of RORγ/γt, RORα (mouse homolog for POPγ), and DHR3 (Drosophila orthologue for ROR family proteins) were replaced with the heterologous yeast GAL4 DBD. The transcriptionally active domain of general transcriptional activator VP16 was also fused with GAL4 DBD. The GAL4 fusion constructs were placed under the control of a copper inducible promoter, and stable S2 cell lines with genomic integration of these four reporter constructs were generated. The copper inducible promoter ensures tight regulation of GAL4-fusion protein expression and it allows small molecules to get into the cells prior to protein induction, thus increasing their effects on GAL4 reporters. The stable reporter cell lines also encode the firefly luciferase reporter, whose expression is regulated by five copies of the GAL4 binding site enhancer (UAS), along with the pol III-driven Renilla luciferase reporter.
# A cell-based reporter assay was used to detect RORγt-mediated activity. This assay, called RORγt□ employed Drosophila Schneider cells that were stably transfected with two vectors: a gene expressing a fusion of the Gal4 DNA binding domain and RORγt transactivation domain under the control of the metallothionine promoter and a Photinus luciferase reporter regulated by the Gal4 binding site enhancer, UAS. […] Cells (600/well) were dispensed into white solid 1536-well plates (Greiner) using a solenoid-based dispenser. Following transfer of 23 nL compound or DMSO vehicle by a pin tool, the plates were incubated 1 hr at ambient temperature, and 1 uL/well copper sulfate (700 uM final concentration) was added. The plates were centrifuged 15 s at 1000 RPM and incubated 20 hr at ambient temperature. After addition of 1.5 uL Photinus luciferase detection reagent, the plates were incubated 10 min at ambient temperature and then read by a ViewLux (Perkin Elmer) to detect luminescence. […] Efficacy is expressed as % of the maximal response of control inhibitor (Digoxin), set at 100%.
# [3] = IC50(μM), Drosophila S2 cells, Gal4-RORγt luciferase reporter, 20 hr
# [4] = S2 cell RORg IC50 μM, S2 cell reporter assay, listed for comparison
Structure (SMILES),IC50 [1] [µM],Emax [2] [%],"IC50 [2, 3] [µM]","IC50 [2, 4] [µM]","mouse Th17 cell differentiation, as measured by IL17a production ([1]; 20 μM, compared to DMSO treated cells, FACS (FIG. 3))"
"COc1cc(O)c([C@@H](CC(=O)N2CC(C)CC(C)C2)c2ccc3c(c2)OCO3)c(OC)c1 (single isomer, unassigned; (-)) [Compound 35]",< 1,91,–,–,–
COc1cc(O)c(C(CC(=O)N2CCC(C)CC2)c2ccc3c(c2)OCO3)c(OC)c1 (stereo not drawn) [Compound 1],> 20,–,–,–,–
COc1cc(O)c(C(CC(=O)N2CCCC(C)(C)C2)c2ccc3c(c2)OCO3)c(OC)c1 (stereo not drawn) [Compound 8],1 to 10,–,–,–,–
COc1cc(O)c(C(CC(=O)N2CC(C)CC(C)C2)c2ccc3c(c2)OCO3)c(OC)c1 (stereo not drawn) [Compound 22],< 1,97.7,–,–,–
COc1cc(O)c(C(CC(=O)N2CC(C)OC(C)C2)c2ccc3c(c2)OCO3)c(OC)c1 (stereo not drawn) [Compound 41],< 1,–,–,–,–
COc1cc(O)c(C(CC(=O)N2CC(C)NC(C)C2)c2ccc3c(c2)OCO3)c(OC)c1 (stereo not drawn) [Compound 42],> 20,–,> 50,> 20,–
COc1cc(O)c(C(CC(=O)N2CCCC(C(F)(F)F)C2)c2ccc3c(c2)OCO3)c(OC)c1 (stereo not drawn) [Compound 43],1 to 10,–,–,–,–
COc1cc(O)c(C(CC(=O)N2CCCC(C)C2)c2ccc(C)cc2)c(OC)c1 (stereo not drawn) [Compound 57],1 to 10,97,1 to 10,1 to 10,–
COc1ccc(C(CC(=O)N2CCCC(C)C2)c2c(O)cc(OC)cc2OC)cc1 (stereo not drawn) [Compound 60],1 to 10,91.7,1 to 10,1 to 10,–
COc1cc(O)c(C(CC(=O)N2CCCC(C)C2)c2ccccc2)c(OC)c1 (stereo not drawn) [Compound 61],> 20,95.4,1 to 10,1 to 10,–
COc1cc(O)c(C(CC(=O)N2CCCC(C)C2)c2ccccc2C)c(OC)c1 (stereo not drawn) [Compound 63],> 20,93.5,1 to 10,1 to 10,–
COc1ccc(C(CC(=O)N2CCCC(C)C2)c2c(O)cc(OC)cc2OC)c(OC)c1 (stereo not drawn) [Compound 69],> 20,45.6,11 to 50,> 20,–
COc1cc(O)c(C(CC(=O)N2CC(C)CC(C)C2)c2ccc(N(C)C)cc2)c(OC)c1 (stereo not drawn) [Compound 72],< 1,96.8,1 to 10,1 to 10,–
COc1cc(O)c(C(CC(=O)N2CC(C)CC(C)C2)c2ccc(C)cc2)c(OC)c1 (stereo not drawn) [Compound 73],< 1,–,–,–,–
COc1ccc(C(CC(=O)N2CC(C)CC(C)C2)c2c(O)cc(OC)cc2OC)cc1 (stereo not drawn) [Compound 74],< 1,–,–,–,–
COc1cc(O)c(C(CC(=O)N2CC(C)CC(C)C2)c2ccc(O)cc2)c(OC)c1 (stereo not drawn) [Compound 75],< 1,93.8,1 to 10,1 to 10,–
COc1cc(O)c(C(CC(=O)N2CC(C)CC(C)C2)c2ccc3c(c2)OCCO3)c(OC)c1 (stereo not drawn) [Compound 76],< 1,95.4,< 1,1 to 10,–
COc1ccc(C(CC(=O)N2CCCC(C)C2)c2ccc3c(c2)OCO3)c(O)c1 (stereo not drawn) [Compound 115],> 20,–,–,–,–
"COc1cc(OC)c(C(CC(=O)N2CCCC(C)C2)c2ccc3c(c2)OCO3)c(OC)c1 (stereo not drawn) [Compound 120, 3-(Benzo[d][1,3]dioxol-5-yl)-1-(3-methylpiperidin-1-yl)-3-(2,4,6-trimethoxyphenyl)propan-1-one]",1 to 10,–,–,–,–
COc1cccc(O)c1C(CC(=O)N1CCCC(C)C1)c1ccc2c(c1)OCO2 (stereo not drawn) [Compound 121],> 20,–,–,–,–
COc1cc(OC)c(C(CC(=O)N2CC(C)CC(C)C2)c2ccc3c(c2)OCO3)c(OC)c1 (stereo not drawn) [Compound 134],< 1,96.4,1 to 10,1 to 10,–
CC1CC(C)CN(C(=O)CC(c2ccc3c(c2)OCO3)c2c(O)ccc3ccccc23)C1 (stereo not drawn) [Compound 138],1 to 10,–,–,–,–
COc1cc(O)c(C(CC(=O)N2CCCCC2)c2ccc3c(c2)OCO3)c(OC)c1 (stereo not drawn) [NCGC00166488],–,–,–,–,suppress mouse Th17 cell differentiation

# From patent US10561666B2, “Amido compounds as RORγt modulators and uses thereof” (New York University, priority 2010, dated 2020)
